Data reported in patent US20250034216A1, “STEREOSELECTIVE COVALENT LIGANDS FOR ONCOGENIC AND IMMUNOLOGICAL PROTEINS” (The Scripps Research Institute, priority 2021, published 2025).

Experiments:
[1] = biological target: PSME1 and PSME2 (PA28 complex) (Homo sapiens, UniProt Q06323); assay: SEC-MS elution profile; assay type: cell-based; parameters: endogenous in cells; host or cells: 22Rv1; settings: 22Rv1 cells, 20 μM, 3 h
Experimental: Sample preparation: Cells (adherent: 15 cm dishes, suspension: 2 million cells/mL) were treated with electrophilic probes in situ for indicated times and concentrations (elaborated fragments: 20 μM, 3 h), washed with ice-cold PBS, and flash frozen in liquid nitrogen. Cell pellets were lysed by sonication (8 pulses, 40% power) in 600 μL ice-cold PBS supplemented with cOmplete protease inhibitors (1 tablet/10 mL of PBS), ultracentrifuged for 20 min at 100,000 g, then normalized to a standardized concentration (typically 1.5 to 2.5 mg/mL). Clarified lysate was injected into a Superdex 200 Increase 10/300 GL column attached to an AKTA pure FPLC system. Proteins were fractionated using an isocratic gradient (PBS) running at 0.5 mL/min into 5 fractions 2 mL wide, beginning at 8 mL and ending at 18 mL. Eluate was collected into 15 mL tubes containing 12 mL of acetone at 4C. After completion of one set of 5 fractions, the above protocol was repeated a second time for the remaining 5 fractions. Proteins were precipitated overnight at −20 C, then spun at 4500 g for 20 minutes, yielding a white protein pellet. Acetone/PBS mixture was decanted off the pellets, which were dried at room temperature and then resuspended in 125 μL of 8 M urea, 10 mM DTT in 100 mM EPPS for 15 minutes at 65 degrees, followed by probe sonication to complete resuspension. 6.25 μL of 500 mM iodoacetamide was added to samples for alkylation (30 minutes, 37 C), followed by dilution with 370 μL of 100 mM EPPS, and addition of 2 μg trypsin per fraction, and digestion overnight at 37 C. 70 μL of tryptic digest was aliquoted into a clean microcentrifuge tube, followed by 30 μL of dry acetonitrile and 4.5 μL (5 mg/256 μL) of TMT tag in dry acetonitrile. Samples were labeled at room temperature for 75 minutes, then quenched with 6 μL of 5% hydroxylamine for 15 minutes and acidified with 5 μL of formic acid. The set of 10 samples were then combined into a single tube and evaporated by speed vac. Samples were then desalted and fractionated before analysis by mass spectrometry.
Data processing: Fractional distributions for each peptide-spectra match with a total TMT reporter ion intensity were calculated by dividing the reporter ion intensity for each TMT channel by the summed intensity across the 5 TMT channels corresponding to a single treatment condition (Equation 1). Protein-level SEC elution profiles were then generated by averaging together all unique peptides with a summed reporter ion intensity >5,000. Two unique peptide sequences were required per-protein. Bar graph elution profiles are represented as the mean±standard error of the mean across all replicates. Euclidean distances (SE shift scores, Equation 2) were calculated using the average elution profile for each protein across replicates, combined by treatment condition and cell line. Figures reporting mean elution times used Equation 3 for calculation.
Filtering of SEC-MS data: Replicates were combined based on cell line and treatment condition (probe, concentration, duration) by averaging SEC elution profiles for each protein across all experiments. A coefficient of variation (CV) filter was applied by taking the average the per-fraction CV across all 5 fractions. Proteins with a CV≥0.7 were removed from analysis.

DDX39A_C86 = assay: IA-DTB cysteine engagement; assay type: binding, human; settings: 22Rv1 cells, 20 μM probe, 1 h, relative to DMSO
Experimental: Sample preparation: Cells (adherent: 15 cm dishes, suspension: 2 million cells/mL) were treated with electrophilic probes in situ for indicated times and concentrations, washed with ice-cold PBS, and flash frozen in liquid nitrogen. Cell pellets were lysed by sonication (8 pulses, 40% power) in 500 μL ice-cold PBS supplemented with cOmplete protease inhibitors (1 tablet/10 mL of PBS). Whole cell lysates protein content was measured using a standard DC protein assay (Bio-Rad) and 500 μL (2 mg/mL protein content) were treated with 5 μL of 10 mM 1A-DTB (in DMSO) for 1 h at ambient temperature with occasional vortexing. Samples were methanol-chloroform precipitated with the addition of 500 μL ice-cold MeOH and 200 μL CHCl3, vortexed, and centrifuged (10 min, 10,000 g). Without disrupting the protein disk, both top and bottom layers were aspirated and the protein disk was washed with 1 mL ice-cold MeOH and centrifuged (10 min, 10,000 g). The pellets were allowed to air dry, and then re-suspended in 90 μL buffer (9 M urea, 10 mM DTT, 50 mM TEAB pH 8.5). Samples were reduced by heating at 65 C for 20 minutes and water bath sonicated as needed to resuspend the protein pellets, followed by alkylation via addition of 10 μL (500 mM) iodoacetamide and incubated at 37 C for 30 min with shaking. Samples were briefly centrifuged, and probe sonicated once more to ensure complete resuspension, and then diluted with 300 μL buffer (50 mM TEAB pH 8.5) to reach final concentration of 2 M urea. Trypsin (4 μL of 0.25 μg/μL in trypsin resuspension buffer with 25 mM CaCl2)) was added to each sample and digested at 37 C for 2 h to overnight. Digested samples were then diluted with 300 μL wash buffer (50 mM TEAB pH 8.5, 150 mM NaCl, 0.2% NP-40) containing streptavidin-agarose beads (50 μL of 50% slurry in wash buffer) and were rotated at room temperature for 2 hours. Enriched samples were pelleted by centrifugation (2000 g, 2 min) and transferred to BioSpin columns and washed (3×1 mL wash buffer, 3×1 mL PBS, 3×1 mL water). Enriched peptides were eluted by 300 μL 50% acetonitrile with 0.1% formic acid and eluate was evaporated to dryness via speedvac. IA-DTB labeled and enriched peptides were resuspended in 100 μL EPPS buffer (200 mM, pH 8.0) with 30% acetonitrile, vortexed, and water bath sonicated. Samples were TMT labeled with 3 μL of corresponding TMT tag (5 mg tag resuspended in 256 μL acetonitrile), vortexed, and incubated at room temperature for 1 hour. […]
Data processing: Cysteine engagement ratios (probe vs DMSO) were calculated for each peptide-spectra match by dividing each TMT reporter ion intensity by the average intensity for the channels corresponding to DMSO treatment. […]

ABCA2_C2385 = biological target: T1, ABCA2_C2385 (Homo sapiens, UniProt Q9BZC7); assay: IA-DTB cysteine engagement; assay type: binding; settings: 22Rv1 cells, 20 μM probe, 1 h, relative to DMSO
T1 construct: endogenous in cells; host or cells: 22Rv1
Experimental: (§1) Sample preparation: Cells (adherent: 15 cm dishes, suspension: 2 million cells/mL) were treated with electrophilic probes in situ for indicated times and concentrations, washed with ice-cold PBS, and flash frozen in liquid nitrogen. Cell pellets were lysed by sonication (8 pulses, 40% power) in 500 μL ice-cold PBS supplemented with cOmplete protease inhibitors (1 tablet/10 mL of PBS). Whole cell lysates protein content was measured using a standard DC protein assay (Bio-Rad) and 500 μL (2 mg/mL protein content) were treated with 5 μL of 10 mM 1A-DTB (in DMSO) for 1 h at ambient temperature with occasional vortexing. Samples were methanol-chloroform precipitated with the addition of 500 μL ice-cold MeOH and 200 μL CHCl3, vortexed, and centrifuged (10 min, 10,000 g). Without disrupting the protein disk, both top and bottom layers were aspirated and the protein disk was washed with 1 mL ice-cold MeOH and centrifuged (10 min, 10,000 g). The pellets were allowed to air dry, and then re-suspended in 90 μL buffer (9 M urea, 10 mM DTT, 50 mM TEAB pH 8.5). Samples were reduced by heating at 65 C for 20 minutes and water bath sonicated as needed to resuspend the protein pellets, followed by alkylation via addition of 10 μL (500 mM) iodoacetamide and incubated at 37 C for 30 min with shaking. Samples were briefly centrifuged, and probe sonicated once more to ensure complete resuspension, and then diluted with 300 μL buffer (50 mM TEAB pH 8.5) to reach final concentration of 2 M urea. Trypsin (4 μL of 0.25 μg/μL in trypsin resuspension buffer with 25 mM CaCl2)) was added to each sample and digested at 37 C for 2 h to overnight. Digested samples were then diluted with 300 μL wash buffer (50 mM TEAB pH 8.5, 150 mM NaCl, 0.2% NP-40) containing streptavidin-agarose beads (50 μL of 50% slurry in wash buffer) and were rotated at room temperature for 2 hours. Enriched samples were pelleted by centrifugation (2000 g, 2 min) and transferred to BioSpin columns and washed (3×1 mL wash buffer, 3×1 mL PBS, 3×1 mL water). Enriched peptides were eluted by 300 μL 50% acetonitrile with 0.1% formic acid and eluate was evaporated to dryness via speedvac. IA-DTB labeled and enriched peptides were resuspended in 100 μL EPPS buffer (200 mM, pH 8.0) with 30% acetonitrile, vortexed, and water bath sonicated. Samples were TMT labeled with 3 μL of corresponding TMT tag (5 mg tag resuspended in 256 μL acetonitrile), vortexed, and incubated at room temperature for 1 hour. TMT labeling was quenched with the addition of hydroxylamine (5 μL 5% solution in H2O) and incubated for 15 minutes at room temperature. Samples were then acidified with 5 μL formic acid, combined and dried using a SpeedVac. Samples were desalted via Sep-Pak and then high pH fractionated.
(§2) Data processing: Cysteine engagement ratios (probe vs DMSO) were calculated for each peptide-spectra match by dividing each TMT reporter ion intensity by the average intensity for the channels corresponding to DMSO treatment. Peptide-spectra matches were then grouped based on protein ID and residue number (e.g., PSME1 C22), excluding peptides with summed reporter ion intensities for the DMSO channels <10,000, coefficient of variation for DMSO channels >0.5, and non-tryptic peptide sequences. TMT reporter ion intensities were normalized to the median summed signal intensity across channels.
(§3) Filtering of cysteine data: Replicates were combined based on cell line and treatment condition (probe, concentration, duration) by averaging cysteine engagement ratios across all experiments.

TANC1_C800 = biological target: T2, TANC1_C800 (Homo sapiens, UniProt Q9C0D5); assay: IA-DTB cysteine engagement; assay type: binding; settings: 22Rv1 cells, 20 μM probe, 1 h, relative to DMSO
T2 construct: endogenous in cells; host or cells: 22Rv1
Experimental: as §1, §2, §3

Sequence of PSME1 and PSME2 (PA28 complex) (Q06323 whole entry, the tested form may be a part, one chain of several): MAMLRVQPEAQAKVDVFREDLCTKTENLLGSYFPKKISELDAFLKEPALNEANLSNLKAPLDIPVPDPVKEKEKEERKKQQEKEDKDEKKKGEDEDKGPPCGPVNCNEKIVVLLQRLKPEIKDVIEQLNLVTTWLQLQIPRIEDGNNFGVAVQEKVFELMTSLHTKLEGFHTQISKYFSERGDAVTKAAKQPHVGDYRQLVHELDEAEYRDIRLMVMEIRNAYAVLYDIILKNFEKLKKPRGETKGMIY
T2 sequence (Q9C0D5 whole entry): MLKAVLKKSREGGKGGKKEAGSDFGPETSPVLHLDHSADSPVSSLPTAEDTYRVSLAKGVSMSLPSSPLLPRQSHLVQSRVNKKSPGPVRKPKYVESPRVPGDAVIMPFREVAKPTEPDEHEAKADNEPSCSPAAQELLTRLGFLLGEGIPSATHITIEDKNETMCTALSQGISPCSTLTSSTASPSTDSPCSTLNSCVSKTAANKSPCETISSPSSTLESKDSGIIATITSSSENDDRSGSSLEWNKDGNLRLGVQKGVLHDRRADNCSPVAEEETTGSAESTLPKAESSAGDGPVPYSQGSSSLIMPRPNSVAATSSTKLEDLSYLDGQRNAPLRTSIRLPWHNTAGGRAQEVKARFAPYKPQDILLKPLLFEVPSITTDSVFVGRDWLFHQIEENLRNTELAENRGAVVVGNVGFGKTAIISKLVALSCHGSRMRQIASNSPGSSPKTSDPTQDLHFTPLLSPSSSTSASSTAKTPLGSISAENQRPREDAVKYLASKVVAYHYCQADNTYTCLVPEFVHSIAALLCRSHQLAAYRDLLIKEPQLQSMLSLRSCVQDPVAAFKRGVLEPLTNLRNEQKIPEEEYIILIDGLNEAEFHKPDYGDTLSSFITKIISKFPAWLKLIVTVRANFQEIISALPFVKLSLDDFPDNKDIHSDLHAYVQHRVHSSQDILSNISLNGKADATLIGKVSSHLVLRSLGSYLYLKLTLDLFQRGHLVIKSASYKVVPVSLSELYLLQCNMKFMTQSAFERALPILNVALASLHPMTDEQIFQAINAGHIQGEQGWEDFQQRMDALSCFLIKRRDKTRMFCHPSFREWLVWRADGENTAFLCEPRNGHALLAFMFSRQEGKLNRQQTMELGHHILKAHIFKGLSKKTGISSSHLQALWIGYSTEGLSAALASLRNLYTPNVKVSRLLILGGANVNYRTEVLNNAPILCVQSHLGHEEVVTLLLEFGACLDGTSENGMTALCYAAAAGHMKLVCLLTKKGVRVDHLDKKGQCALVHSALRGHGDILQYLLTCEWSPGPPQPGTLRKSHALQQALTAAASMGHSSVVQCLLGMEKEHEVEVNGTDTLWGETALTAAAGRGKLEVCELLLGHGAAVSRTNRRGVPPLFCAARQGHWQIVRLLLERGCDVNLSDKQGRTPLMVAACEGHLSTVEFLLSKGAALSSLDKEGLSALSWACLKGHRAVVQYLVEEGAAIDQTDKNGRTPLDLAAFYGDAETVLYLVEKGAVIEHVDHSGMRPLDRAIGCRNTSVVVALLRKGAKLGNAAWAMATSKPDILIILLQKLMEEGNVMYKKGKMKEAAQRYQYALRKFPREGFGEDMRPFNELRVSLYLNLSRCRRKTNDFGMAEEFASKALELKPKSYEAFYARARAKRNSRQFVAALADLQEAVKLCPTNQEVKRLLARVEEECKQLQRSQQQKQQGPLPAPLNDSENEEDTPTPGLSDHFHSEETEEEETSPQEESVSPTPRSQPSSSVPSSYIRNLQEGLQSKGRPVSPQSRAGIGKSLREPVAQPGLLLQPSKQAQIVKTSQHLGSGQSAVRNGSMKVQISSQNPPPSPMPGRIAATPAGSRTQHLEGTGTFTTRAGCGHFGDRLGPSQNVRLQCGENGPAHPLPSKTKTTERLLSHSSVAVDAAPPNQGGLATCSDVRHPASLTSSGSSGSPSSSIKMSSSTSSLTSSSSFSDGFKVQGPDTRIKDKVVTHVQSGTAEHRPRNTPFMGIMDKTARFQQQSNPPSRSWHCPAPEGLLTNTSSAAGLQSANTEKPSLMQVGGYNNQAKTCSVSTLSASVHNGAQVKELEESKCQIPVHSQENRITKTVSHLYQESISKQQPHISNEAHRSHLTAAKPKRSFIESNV
T1 sequence (Q9BZC7 whole entry): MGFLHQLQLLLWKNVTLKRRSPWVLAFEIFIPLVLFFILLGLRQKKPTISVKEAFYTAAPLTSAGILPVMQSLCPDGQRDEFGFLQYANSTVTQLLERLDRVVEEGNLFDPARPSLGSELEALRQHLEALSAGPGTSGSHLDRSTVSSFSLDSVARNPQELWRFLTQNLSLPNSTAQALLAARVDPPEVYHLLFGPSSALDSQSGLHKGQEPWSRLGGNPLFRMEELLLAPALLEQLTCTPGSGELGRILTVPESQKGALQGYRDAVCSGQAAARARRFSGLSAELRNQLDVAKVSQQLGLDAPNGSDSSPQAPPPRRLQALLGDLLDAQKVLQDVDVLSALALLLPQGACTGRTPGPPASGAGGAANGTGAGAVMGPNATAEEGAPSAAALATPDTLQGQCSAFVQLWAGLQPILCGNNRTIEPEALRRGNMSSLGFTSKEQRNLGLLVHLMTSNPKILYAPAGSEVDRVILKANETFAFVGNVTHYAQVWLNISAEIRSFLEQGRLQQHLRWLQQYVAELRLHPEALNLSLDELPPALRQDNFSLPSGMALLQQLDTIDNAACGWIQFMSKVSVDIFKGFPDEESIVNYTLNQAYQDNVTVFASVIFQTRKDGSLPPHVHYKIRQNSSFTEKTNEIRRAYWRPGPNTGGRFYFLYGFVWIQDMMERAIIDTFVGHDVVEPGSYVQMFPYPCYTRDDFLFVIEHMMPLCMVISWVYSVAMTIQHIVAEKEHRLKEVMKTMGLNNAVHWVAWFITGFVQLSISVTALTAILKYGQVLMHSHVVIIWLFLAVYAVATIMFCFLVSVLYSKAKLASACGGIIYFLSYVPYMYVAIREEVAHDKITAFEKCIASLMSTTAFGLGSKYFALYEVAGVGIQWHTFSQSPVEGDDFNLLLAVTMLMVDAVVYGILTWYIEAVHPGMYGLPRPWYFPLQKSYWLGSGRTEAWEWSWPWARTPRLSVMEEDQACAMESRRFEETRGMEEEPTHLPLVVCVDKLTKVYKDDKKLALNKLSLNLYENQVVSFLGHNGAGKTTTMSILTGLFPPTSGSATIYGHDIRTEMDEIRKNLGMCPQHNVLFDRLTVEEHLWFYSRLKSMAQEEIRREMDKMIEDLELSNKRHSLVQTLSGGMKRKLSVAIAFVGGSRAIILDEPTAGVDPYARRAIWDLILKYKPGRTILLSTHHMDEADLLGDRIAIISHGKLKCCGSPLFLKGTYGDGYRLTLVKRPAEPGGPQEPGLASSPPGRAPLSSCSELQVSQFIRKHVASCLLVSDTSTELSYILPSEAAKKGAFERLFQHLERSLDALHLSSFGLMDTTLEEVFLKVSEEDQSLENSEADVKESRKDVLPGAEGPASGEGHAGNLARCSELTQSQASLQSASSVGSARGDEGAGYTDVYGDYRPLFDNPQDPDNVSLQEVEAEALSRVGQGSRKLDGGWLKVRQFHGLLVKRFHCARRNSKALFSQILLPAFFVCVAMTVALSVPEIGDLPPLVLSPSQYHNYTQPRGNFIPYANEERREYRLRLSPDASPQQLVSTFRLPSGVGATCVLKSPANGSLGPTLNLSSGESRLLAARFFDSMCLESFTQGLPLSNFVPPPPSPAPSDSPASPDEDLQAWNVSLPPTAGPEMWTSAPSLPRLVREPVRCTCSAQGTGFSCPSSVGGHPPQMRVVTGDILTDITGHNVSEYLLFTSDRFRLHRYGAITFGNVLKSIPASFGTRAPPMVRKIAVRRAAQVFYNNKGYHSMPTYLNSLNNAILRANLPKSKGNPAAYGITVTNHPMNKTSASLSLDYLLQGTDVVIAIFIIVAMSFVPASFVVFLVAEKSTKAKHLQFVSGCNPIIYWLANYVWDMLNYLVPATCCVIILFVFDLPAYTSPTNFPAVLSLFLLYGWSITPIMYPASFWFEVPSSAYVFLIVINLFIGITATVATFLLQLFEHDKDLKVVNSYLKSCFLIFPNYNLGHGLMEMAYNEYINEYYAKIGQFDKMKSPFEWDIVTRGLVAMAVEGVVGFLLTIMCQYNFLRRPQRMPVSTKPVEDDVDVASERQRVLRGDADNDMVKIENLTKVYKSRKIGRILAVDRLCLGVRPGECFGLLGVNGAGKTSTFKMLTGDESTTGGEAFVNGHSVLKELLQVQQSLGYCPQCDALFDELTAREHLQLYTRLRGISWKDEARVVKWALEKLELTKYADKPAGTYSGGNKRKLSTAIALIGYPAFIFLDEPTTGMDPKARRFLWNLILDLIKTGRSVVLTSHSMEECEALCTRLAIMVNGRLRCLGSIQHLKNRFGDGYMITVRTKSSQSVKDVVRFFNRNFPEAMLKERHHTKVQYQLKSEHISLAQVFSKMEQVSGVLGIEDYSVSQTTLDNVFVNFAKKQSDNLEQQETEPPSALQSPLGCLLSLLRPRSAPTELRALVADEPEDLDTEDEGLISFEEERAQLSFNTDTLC

## C=CC(=O)N1C[C@@H](c2ccc(Br)cc2)[C@H]1C(=O)Nc1cccc2cccnc12 [MY-1A, (2S,3R)-1-acryloyl-3-(4-bromophenyl)-N-(quinolin-8-yl)azetidine-2-carboxamide]
[1]
  SEC migration shift of PSME1 and PSME2: None of the other azetidine acrylamide stereoisomers
DDX39A_C86
  % engagement DDX39A_C86: 44.5%
ABCA2_C2385
  % engagement ABCA2_C2385: 33%
TANC1_C800
  % engagement TANC1_C800: −2%

## C=CC(=O)N1C[C@H](c2ccc(Br)cc2)[C@@H]1C(=O)Nc1cccc2cccnc12 [MY-1B, (2R,3S)-1-acryloyl-3-(4-bromophenyl)-N-(quinolin-8-yl)azetidine-2-carboxamide]
[1]
  SEC migration shift of PSME1 and PSME2: decreased size shift
DDX39A_C86
  % engagement DDX39A_C86: 37%
ABCA2_C2385
  % engagement ABCA2_C2385: 78%
TANC1_C800
  % engagement TANC1_C800: 3%

## C=CC(=O)N1C[C@H](c2ccc(Br)cc2)[C@H]1C(=O)Nc1cccc2cccnc12 [MY-3A, (2S,3S)-1-acryloyl-3-(4-bromophenyl)-N-(quinolin-8-yl)azetidine-2-carboxamide]
[1]
  SEC migration shift of PSME1 and PSME2: None of the other azetidine acrylamide stereoisomers
DDX39A_C86
  % engagement DDX39A_C86: 23.5%
ABCA2_C2385
  % engagement ABCA2_C2385: 42.5%
TANC1_C800
  % engagement TANC1_C800: 12.5%

## C=CC(=O)N1C[C@H](c2ccc(Br)cc2)[C@H]1C(=O)Nc1cccc2cccnc12 [MY-3B, (2S,3S)-1-acryloyl-3-(4-bromophenyl)-N-(quinolin-8-yl)azetidine-2-carboxamide]
[1]
  SEC migration shift of PSME1 and PSME2: None of the other azetidine acrylamide stereoisomers
DDX39A_C86
  % engagement DDX39A_C86: 67.5%
ABCA2_C2385
  % engagement ABCA2_C2385: 72.5%
TANC1_C800
  % engagement TANC1_C800: 83.5%

## CC#CC(=O)N1C[C@H](c2ccc(Br)cc2)[C@@H]1C(=O)Nc1cccc2cccnc12 [MY-45B, (2R,3S)-3-(4-bromophenyl)-1-(but-2-ynoyl)-N-(quinolin-8-yl)azetidine-2-carboxamide]
[1]
  SEC migration shift of PSME1 and PSME2: caused the expected SEC migration shifts
